In patent US20240025919A1, “AZA-TETRACYCLIC OXAZEPINE COMPOUNDS AND USES THEREOF” (Genentech, Inc., priority 2022, published 2024):

Key:
KRAS G12D = KRAS G12D (Homo sapiens (Human), UniProt P01116, G12D); assay: KRAS G12D LoEnz Biochemical Assay, BODIPY-GDP Exchange TR-FRET (SOS1-mediated nucleotide exchange); settings: read-out: KRas (G12D) GDP HTRF IC50
KRAS WT = KRAS WT (Homo sapiens (Human), UniProt P01116); assay: KRAS WT Biochemical Assay, BODIPY-GDP Exchange TR-FRET (Example 502; 0.06 nM KRAS WT, 15 nM GDP, 300 nM SOS1, 120-minute incubation); settings: read-out: KRas HTRF IC50
Description: Example 502: KRAS WT Biochemical Assay, BODIPY-GDP Exchange TR-FRET. Biochemical compound potencies are assessed by evaluating inhibition of SOS1-mediated nucleotide exchange in KRAS WT. In this assay, the SOS1-promoted exchange of fluorescently-labeled GDP (BOPIDY-GDP) is monitored by time-resolved fluorescence resonance energy transfer (TR-FRET). Compounds solubilized in DMSO are dispensed as concentration series into 384-well white assay plates. A preformed complex of 0.06 nM biotin-tagged recombinant human KRAS WT, 15 nM GDP and 0.06 nM terbium-labeled streptavidin (CisBIO) prepared in 10 uL/well assay buffer (20 mM HEPES, pH 7.5, 50 mM NaCl, 10 mM MgCl2, 0.01% Tween-20 and 1 mM dithiothreitol) is added and allowed to incubate for 10-minutes at room temperature. The reaction is initiated with the addition of 5 uL 300 nM recombinant human SOS1 and 300 nM BODIPY-GDP in assay buffer. After a 120-minute incubation, the fluorescence is measured with excitation at 337 nm and emission at 490 and 520 nm. The TR-FRET ratio is determined as the fluorescence at 520 nm divided by the fluorescence at 490 nm multiplied by 10,000. The results are normalized to percent inhibition based on control samples: DMSO (0% inhibition) and control compound at a concentration that inhibits completely (100% inhibition). The normalized TR-FRET results are plotted against compound concentration, and the data are fit to a 4-parameter Hill equation to determine the IC50 values.

Sequence of KRAS G12D (P01116-2 other isoform, or with tags, fused parts or gaps G12D): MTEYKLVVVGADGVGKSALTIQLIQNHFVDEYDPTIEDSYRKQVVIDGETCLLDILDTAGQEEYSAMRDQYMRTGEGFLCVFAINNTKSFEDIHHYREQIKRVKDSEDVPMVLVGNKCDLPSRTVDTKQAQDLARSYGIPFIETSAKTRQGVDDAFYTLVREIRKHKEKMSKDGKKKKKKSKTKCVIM
Sequence of KRAS WT (P01116-2 other isoform, or with tags, fused parts or gaps): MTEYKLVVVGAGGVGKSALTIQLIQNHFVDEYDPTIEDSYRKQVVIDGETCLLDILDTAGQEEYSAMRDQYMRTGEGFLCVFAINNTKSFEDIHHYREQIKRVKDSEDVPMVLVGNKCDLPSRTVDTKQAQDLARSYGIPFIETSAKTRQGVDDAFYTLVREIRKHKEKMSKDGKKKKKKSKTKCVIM

Row | SMILES | IC50 (KRAS G12D) | IC50 (KRAS WT)
1 | Cc1c(F)c(N)cc(-c2nc3c4c(nc(OC[C@@]56CCCN5C/C(=C\F)C6)nc4c2F)N2C[C@H]4CC[C@H](N4)[C@H]2[C@H](C)O3)c1C(F)(F)F [Compound 64, 2-fluoro-5-((5S,5aS,6S,9R)-1-fluoro-12-(((S,Z)-2-(fluoromethylene)tetrahydro-1H-pyrrolizin-7a(5H)-yl)methoxy)-5-methyl-5a,6,7,8,9,10-hexahydro-5H-4-oxa-3,10a,11,13,14-pentaaza-6,9-methanonaphtho[1,8-ab]heptalen-2-yl)-3-methyl-4-(trifluoromethyl)aniline] | 0.12 nM | 0.738 nM
2 | Cc1c(F)c(N)cc(-c2nc3c4c(nc(OC[C@@]56CCCN5C[C@H](F)C6)nc4c2F)N2C[C@H]4CC[C@H](N4)[C@H]2CO3)c1C(F)(F)F [Compound 61, 2-Fluoro-5-((5aS,6S,9R)-1-fluoro-12-(((2R,7aS)-2-fluorotetrahydro-1H-pyrrolizin-7a(5H)-yl)methoxy)-5a,6,7,8,9,10-hexahydro-5H-4-oxa-3,10a,11,13,14-pentaaza-6,9-methanonaphtho[1,8-ab]heptalen-2-yl)-3-methyl-4-(trifluoromethyl)aniline] | 0.21 nM | 30.5 nM
3 | COc1cc2ccccc2c(-c2nc3c4c(nc(OC[C@]56CCN5CC(F)(F)C6)nc4c2F)N2C[C@H]4CC[C@H](N4)[C@H]2[C@H](C)O3)n1 [Compound 89, (5S,5aS,6S,9R)-12-(((R)-3,3-Difluoro-1-azabicyclo[3.2.0]heptan-5-yl)methoxy)-1-fluoro-2-(3-methoxyisoquinolin-1-yl)-5-methyl-5a,6,7,8,9,10-hexahydro-5H-4-oxa-3,10a,11,13,14-pentaaza-6,9-methanonaphtho[1,8-ab]heptalene] | 912 nM | 1650 nM
4 | Cc1c(F)c(N)cc(-c2nc3c4c(nc(OC[C@@H]5CO[C@H]6CC[N@]5C6)nc4c2F)N2C[C@H]4CC[C@H](N4)[C@H]2[C@H](C)O3)c1C(F)(F)F [Compound 135, 5-((5S,5aS,6S,9R)-12-(((1R,2S,5S)-4-Oxa-1-azabicyclo[3.2.1]octan-2-yl)methoxy)-1-fluoro-5-methyl-5a,6,7,8,9,10-hexahydro-5H-4-oxa-3,10a,11,13,14-pentaaza-6,9-methanonaphtho[1,8-ab]heptalen-2-yl)-2-fluoro-3-methyl-4-(trifluoromethyl)aniline] | 0.71 nM | 143 nM
5 | Cc1c(F)c(N)cc(-c2nc3c4c(nc(OC[C@@H]5CC[C@@H]6CC(C(=O)N(C)C)CCN65)nc4c2F)N2C[C@H]4CC[C@H](N4)[C@H]2[C@H](C)O3)c1C(F)(F)F (single isomer, unassigned) [133 (isomer 3)] | 0.14 nM | 23.3 nM
6 | C[C@@H]1Oc2nc(-c3cc(N)ccc3C(C)(C)C)c(F)c3nc(OC[C@@]45CCCN4C[C@H](F)C5)nc(c23)N2C[C@H]3CC[C@H](N3)[C@@H]12 [Compound 117, 4-(tert-butyl)-3-((5S,5aS,6S,9R)-1-fluoro-12-(((2R,7aS)-2-fluorotetrahydro-1H-pyrrolizin-7a(5H)-yl)methoxy)-5-methyl-5a,6,7,8,9,10-hexahydro-5H-4-oxa-3,10a,11,13,14-pentaaza-6,9-methanonaphtho[1,8-ab]heptalen-2-yl)aniline] | 4.84 nM | 638 nM
7 | Cc1c(F)c(N)cc(-c2nc3c4c(nc(OCC5(CN6CCOC[C@H]6C)CC5)nc4c2F)N2C[C@H]4CC[C@H](N4)[C@H]2[C@H](C)O3)c1C(F)(F)F [Compound 129, 2-Fluoro-5-((5S,5aS,6S,9R)-1-fluoro-5-methyl-12-((1-(((R)-3-methylmorpholino)methyl)cyclopropyl)methoxy)-5a,6,7,8,9,10-hexahydro-5H-4-oxa-3,10a,11,13,14-pentaaza-6,9-methanonaphtho[1,8-ab]heptalen-2-yl)-3-methyl-4-(trifluoromethyl)aniline] | 0.18 nM | 3.87 nM
8 | Cc1c(F)c(N)cc(-c2nc3c4c(nc(OC[C@@]56CCCN5C[C@H](F)C6)nc4c2F)N2C[C@H]4CC[C@H](N4)[C@H]2[C@H](C)O3)c1C=O [Compound 59, 4-Amino-3-fluoro-6-((5S,5aS,6S,9R)-1-fluoro-12-(((2R,7aS)-2-fluorotetrahydro-1H-pyrrolizin-7a(5H)-yl)methoxy)-5-methyl-5a,6,7,8,9,10-hexahydro-5H-4-oxa-3,10a,11,13,14-pentaaza-6,9-methanonaphtho[1,8-ab]heptalen-2-yl)-2-methylbenzaldehyde] | 0.31 nM | 51.4 nM
9 | Cc1cc(N)c(F)c(-c2nc3c4c(nc(OC[C@@H]5CC[C@H]6COCCN65)nc4c2F)N2C[C@H]4CC[C@H](N4)[C@H]2[C@H](C)O3)c1Cl [Compound 101, 4-Chloro-2-fluoro-3-((5S,5aS,6S,9R)-1-fluoro-12-(((6S,8aS)-hexahydro-1H-pyrrolo[2,1-c][1,4]oxazin-6-yl)methoxy)-5-methyl-5a,6,7,8,9,10-hexahydro-5H-4-oxa-3,10a,11,13,14-pentaaza-6,9-methanonaphtho[1,8-ab]heptalen-2-yl)-5-methylaniline] | 3.19 nM | 906 nM
10 | Cc1c(F)c(N)cc(-c2nc3c4c(nc(OC[C@H]5C[C@@H]6COCCN65)nc4c2F)N2C[C@H]4CC[C@H](N4)[C@H]2[C@H](C)O3)c1C(F)(F)F (mixture of isomers) [159 (mixture), 5-((5S,5aS,6S,9R)-12-((4-Oxa-1-azabicyclo[4.2.0]octan-8-yl)methoxy)-1-fluoro-5-methyl-5a,6,7,8,9,10-hexahydro-5H-4-oxa-3,10a,11,13,14-pentaaza-6,9-methanonaphtho[1,8-ab]heptalen-2-yl)-2-fluoro-3-methyl-4-(trifluoromethyl)aniline] | 0.23 nM | 45.2 nM
11 | Cc1cc(N)c(Cl)c(-c2nc3c4c(nc(OC[C@@H]5CC[C@H]6COCCN65)nc4c2F)N2C[C@H]4CC[C@H](N4)[C@H]2[C@H](C)O3)c1C(F)(F)F [Compound 103, 2-Chloro-3-((5S,5aS,6S,9R)-1-fluoro-12-(((6S,8aS)-hexahydro-1H-pyrrolo[2,1-c][1,4]oxazin-6-yl)methoxy)-5-methyl-5a,6,7,8,9,10-hexahydro-5H-4-oxa-3,10a,11,13,14-pentaaza-6,9-methanonaphtho[1,8-ab]heptalen-2-yl)-5-methyl-4-(trifluoromethyl)aniline] | 0.86 nM | 224 nM
12 | Cc1c(F)c(N)cc(-c2nc3c4c(nc(OC[C@]56COC[C@H]5CCN6C)nc4c2F)N2C[C@H]4CC[C@H](N4)[C@H]2[C@H](C)O3)c1C(F)(F)F (single isomer, unassigned) [134 (isomer 1)] | 0.19 nM | 39.4 nM
13 | C[C@@H]1Oc2nc(-c3cc(N)cc4c3CCC4)c(F)c3nc(OC[C@@]45CCCN4C[C@H](F)C5)nc(c23)N2C[C@H]3CC[C@H](N3)[C@@H]12 [Compound 83, 7-((5S,5aS,6S,9R)-1-Fluoro-12-(((2R,7aS)-2-fluorotetrahydro-1H-pyrrolizin-7a(5H)-yl)methoxy)-5-methyl-5a,6,7,8,9,10-hexahydro-5H-4-oxa-3,10a,11,13,14-pentaaza-6,9-methanonaphtho[1,8-ab]heptalen-2-yl)-2,3-dihydro-1H-inden-5-amine] | 1.15 nM | 123 nM
14 | Cc1c(F)c(N)cc(-c2nc3c4c(nc(OC[C@@H]5CC[C@@H]6C[C@@H](F)CN65)nc4c2F)N2C[C@H]4CC[C@H](N4)[C@H]2[C@H](C)O3)c1C(F)(F)F (single isomer, unassigned) [152 (isomer 2)] | 3.23 nM | 526 nM
